Data reported in patent US4048320A, “Penicillins” (Beecham Group Limited, priority 1975, dated 1977).
Values after ≈ are worked out from the molar mass of the structure shown. Read-outs that look alike come from different tables or passages of the source.

Experiments:
Type in all cases: cell-based
E. cloacae = test: MIC by serial dilution in nutrient agar; conditions: Enterobacter cloacae
Citrobacter freundii = test: MIC by serial dilution in nutrient agar
Streptococcus faecalis = test: MIC by serial dilution in nutrient agar
P. morganii = test: MIC by serial dilution in nutrient agar
Klebsiella aerogenes = test: MIC by serial dilution in nutrient agar
Proteus mirabilis = test: MIC by serial dilution in nutrient agar
P. vulgaris = test: MIC by serial dilution in nutrient agar; conditions: Proteus vulgaris
E. coli = test: MIC by serial dilution in nutrient agar; conditions: Escherichia coli
Serratia marcescens = test: MIC by serial dilution in nutrient agar
P. rettgeri = test: MIC by serial dilution in nutrient agar; conditions: Providencia rettgeri
Enterobacter aerogenes = test: MIC by serial dilution in nutrient agar; conditions: Klebsiella aerogenes
[1] = system: a range of Gram-negative bacteria and Strep. Faecalis; test: Microbiological evaluation, comparison of MIC values of the two compounds (Table I); conditions: from MIC values of Table I
[2] = Citrobacter freundii strain T745
[3] = Citrobacter freundii strain W18
[4] = Enterococcus faecalis, Streptococcus faecalis strain Weaver, read-out: MIC
[5] = Streptococcus faecalis strain A
[6] = Streptococcus faecalis strain Page
[7] = Morganella morganii, P. morganii strain DU10, read-out: MIC
[8] = Klebsiella aerogenes strain B195R+
[9] = Klebsiella aerogenes strain E70
[10] = Klebsiella aerogenes strain I229
[11] = Klebsiella aerogenes strain I281
[12] = Klebsiella aerogenes strain T312
[13] = Proteus mirabilis strain H-WF, read-out: MIC
[14] = E. coli strain JT1, read-out: MIC
[15] = E. coli strain JT39R+, read-out: MIC
[16] = E. coli strain JT56R+, read-out: MIC
[17] = E. coli strain JT68R+, read-out: MIC
[18] = E. coli strain JT103, read-out: MIC
[19] = E. coli strain JT147, read-out: MIC
[20] = E. coli strain JT454C+, read-out: MIC
[21] = E. coli strain JT460C+, read-out: MIC
[22] = Serratia marcescens strain US30
[23] = Serratia marcescens strain US39R+
[24] = Enterobacter aerogenes strain T730
[25] = Enterobacter aerogenes strain T755

For `COC1(NC(=O)C(C(=O)O)c2ccccc2)C(=O)N2C(C(=O)O)C(C)(C)SC21` (stereo not drawn) [6-methoxy carbenicillin, 6α-methoxy-6β-(2-carboxyphenylacetamido)penicillanic acid, reference compound], the MIC (E. cloacae; E. cloacae strain T629) was 5 µg/mL (≈ 12.2 µM), the MIC (E. cloacae; E. cloacae strain T763) was 5 µg/mL (≈ 12.2 µM) and the MIC (Citrobacter freundii; [2]) was 5 µg/mL (≈ 12.2 µM). The MIC (Citrobacter freundii; [3]) was 12.5 µg/mL (≈ 30.6 µM), the MIC (Streptococcus faecalis; [4]) was > 500 µg/mL and the MIC (Streptococcus faecalis; [5]) was > 500 µg/mL. For the same compound, the MIC (Streptococcus faecalis; [6]) was > 500 µg/mL, the MIC (P. morganii; [7]) was 5 µg/mL (≈ 12.2 µM) and the MIC (P. morganii; P. morganii strain DU718) was 5.0 µg/mL (≈ 12.2 µM). For the same compound, the MIC (Klebsiella aerogenes; [8]) was 25 µg/mL (≈ 61.2 µM), the MIC (Klebsiella aerogenes; [9]) was 5 µg/mL (≈ 12.2 µM) and the MIC (Klebsiella aerogenes; [10]) was 12.5 µg/mL (≈ 30.6 µM). It also gave an MIC (Klebsiella aerogenes; [11]) of 12.5 µg/mL (≈ 30.6 µM), an MIC (Klebsiella aerogenes; [12]) of 12.5 µg/mL (≈ 30.6 µM) and an MIC (Proteus mirabilis; Proteus mirabilis strain BS66) of 5.0 µg/mL (≈ 12.2 µM). The MIC (Proteus mirabilis; Proteus mirabilis strain CT13) was 5.0 µg/mL (≈ 12.2 µM), the MIC (Proteus mirabilis; [13]) was 5 µg/mL (≈ 12.2 µM) and the MIC (Proteus mirabilis; Proteus mirabilis strain T251) was 5.0 µg/mL (≈ 12.2 µM). For the same compound, the MIC (P. vulgaris; P. vulgaris strain C) was < 0.5 µg/mL, the MIC (P. vulgaris; P. vulgaris strain I) was 5 µg/mL (≈ 12.2 µM) and the MIC (P. vulgaris; P. vulgaris strain K) was 12.5 µg/mL (≈ 30.6 µM). The MIC (E. coli; [14]) was 5 µg/mL (≈ 12.2 µM), the MIC (E. coli; E. coli strain JT2OR+) was 5 µg/mL (≈ 12.2 µM) and the MIC (E. coli; [15]) was 12.5 µg/mL (≈ 30.6 µM). The MIC (E. coli; [16]) was 12.5 µg/mL (≈ 30.6 µM), the MIC (E. coli; [17]) was 12.5 µg/mL (≈ 30.6 µM) and the MIC (E. coli; [18]) was 5 µg/mL (≈ 12.2 µM). For the same compound, the MIC (E. coli; [19]) was 12.5 µg/mL (≈ 30.6 µM), the MIC (E. coli; [20]) was 5 µg/mL (≈ 12.2 µM) and the MIC (E. coli; [21]) was 12.5 µg/mL (≈ 30.6 µM). It also gave an MIC (Serratia marcescens; Serratia marcescens strain US1) of 5 µg/mL (≈ 12.2 µM), an MIC (Serratia marcescens; [22]) of 12.5 µg/mL (≈ 30.6 µM) and an MIC (Serratia marcescens; [23]) of 5 µg/mL (≈ 12.2 µM). It also gave an MIC (P. rettgeri; P. rettgeri strain B) of 5 µg/mL (≈ 12.2 µM), an MIC (P. rettgeri; P. rettgeri strain I) of 5 µg/mL (≈ 12.2 µM) and an MIC (P. rettgeri; P. rettgeri strain R110) of 5 µg/mL (≈ 12.2 µM). It also gave an MIC (Enterobacter aerogenes; [24]) of 5 µg/mL (≈ 12.2 µM) and an MIC (Enterobacter aerogenes; [25]) of 5 µg/mL (≈ 12.2 µM).

For `COC1(NC(=O)C(C(=O)O)c2ccsc2)C(=O)N2C(C(=O)O)C(C)(C)SC21` [6-methoxy ticarcillin, 6-β-(D,L-2-Carboxy-2-thien-3'-ylacetamido)-6-α-methoxypenicillanic acid], the MIC (E. cloacae; E. cloacae strain T629) was 2.5 µg/mL (≈ 6.03 µM), the MIC (E. cloacae; E. cloacae strain T763) was 1.2 µg/mL (≈ 2.9 µM) and the MIC (Citrobacter freundii; [2]) was 2.5 µg/mL (≈ 6.03 µM). The MIC (Citrobacter freundii; [3]) was 2.5 µg/mL (≈ 6.03 µM), the MIC (Streptococcus faecalis; [4]) was > 500 µg/mL and the MIC (Streptococcus faecalis; [5]) was > 500 µg/mL. For the same compound, the MIC (Streptococcus faecalis; [6]) was > 500 µg/mL, the MIC (P. morganii; [7]) was 2.5 µg/mL (≈ 6.03 µM) and the MIC (P. morganii; P. morganii strain DU718) was 2.5 µg/mL (≈ 6.03 µM). The MIC (Klebsiella aerogenes; [8]) was 5 µg/mL (≈ 12.1 µM), the MIC (Klebsiella aerogenes; [9]) was 2.5 µg/mL (≈ 6.03 µM) and the MIC (Klebsiella aerogenes; [10]) was 5 µg/mL (≈ 12.1 µM). It also gave an MIC (Klebsiella aerogenes; [11]) of 5 µg/mL (≈ 12.1 µM), an MIC (Klebsiella aerogenes; [12]) of 5 µg/mL (≈ 12.1 µM) and an MIC (Proteus mirabilis; Proteus mirabilis strain BS66) of 2.5 µg/mL (≈ 6.03 µM). It also gave an MIC (Proteus mirabilis; Proteus mirabilis strain CT13) of 2.5 µg/mL (≈ 6.03 µM), an MIC (Proteus mirabilis; [13]) of 2.5 µg/mL (≈ 6.03 µM) and an MIC (Proteus mirabilis; Proteus mirabilis strain T251) of 2.5 µg/mL (≈ 6.03 µM). The MIC (P. vulgaris; P. vulgaris strain C) was < 0.5 µg/mL, the MIC (P. vulgaris; P. vulgaris strain I) was 2.5 µg/mL (≈ 6.03 µM) and the MIC (P. vulgaris; P. vulgaris strain K) was 5 µg/mL (≈ 12.1 µM). For the same compound, the MIC (E. coli; [14]) was 2.5 µg/mL (≈ 6.03 µM), the MIC (E. coli; E. coli strain JT2OR+) was 5 µg/mL (≈ 12.1 µM) and the MIC (E. coli; [15]) was 5 µg/mL (≈ 12.1 µM). The MIC (E. coli; [16]) was 5 µg/mL (≈ 12.1 µM), the MIC (E. coli; [17]) was 5 µg/mL (≈ 12.1 µM) and the MIC (E. coli; [18]) was 2.5 µg/mL (≈ 6.03 µM). For the same compound, the MIC (E. coli; [19]) was 5 µg/mL (≈ 12.1 µM), the MIC (E. coli; [20]) was 5 µg/mL (≈ 12.1 µM) and the MIC (E. coli; [21]) was 5 µg/mL (≈ 12.1 µM). It also gave an MIC (Serratia marcescens; Serratia marcescens strain US1) of 2.5 µg/mL (≈ 6.03 µM), an MIC (Serratia marcescens; [22]) of 5 µg/mL (≈ 12.1 µM) and an MIC (Serratia marcescens; [23]) of 2.5 µg/mL (≈ 6.03 µM). The MIC (P. rettgeri; P. rettgeri strain B) was 2.5 µg/mL (≈ 6.03 µM), the MIC (P. rettgeri; P. rettgeri strain I) was 5 µg/mL (≈ 12.1 µM) and the MIC (P. rettgeri; P. rettgeri strain R110) was 2.5 µg/mL (≈ 6.03 µM). The “activity relative to the corresponding phenyl compound (6-methoxy carbenicillin)” value [1] was “consistently two-fold more active”, the MIC (Enterobacter aerogenes; [24]) was 1.2 µg/mL (≈ 2.9 µM) and the MIC (Enterobacter aerogenes; [25]) was 2.5 µg/mL (≈ 6.03 µM).
